Measurements: patent publication US8465726B2, “Stilbene derivatives and their use for binding and imaging amyloid plaques” (The Trustees of the University of Pennsylvania, priority 2004, dated 2013)

How the values were obtained:
[1] = Organ distribution in normal mice after iv injection; format: in vivo; details: ICR mice
Experimental: The organs of interest were removed and weighed, and the radioactivity was assayed for radioactivity content with an automatic gamma counter. The percentage dose per organ was calculated by a comparison of the tissue counts to suitably diluted aliquots of the injected material. Total activities of blood were calculated under the assumption that they were 7% of the total body weight. The % dose/g of samples was calculated by comparing the sample counts with the count of the diluted initial dose.

[2] = tested on: amyloid deposits / Aβ plaques in the brain; details: cited from earlier work

Biodistribution, Blood ([1]; 2 min after iv injection) [% dose/g] | Biodistribution, Bone ([1]; 2 min after iv injection) [% dose/g] | Biodistribution, Brain ([1]; 2 min after iv injection) [% dose/g] | Biodistribution, Blood ([1]; 30 min after iv injection) [% dose/g] | Biodistribution, Bone ([1]; 30 min after iv injection) [% dose/g] | Biodistribution, Brain ([1]; 30 min after iv injection) [% dose/g] | Biodistribution, Blood ([1]; 1 hr after iv injection) [% dose/g] | Biodistribution, Bone ([1]; 1 hr after iv injection) [% dose/g] | Biodistribution, Brain ([1]; 1 hr after iv injection) [% dose/g] | Biodistribution, Blood ([1]; 2 hr after iv injection) [% dose/g] | Biodistribution, Bone ([1]; 2 hr after iv injection) [% dose/g] | Biodistribution, Brain ([1]; 2 hr after iv injection) [% dose/g] | SMILES | retention in the cortex ([2]; patients with diagnosed mild AD) | accumulation in the frontal cortex ([2]; mild to moderate AD patients, not in age-matched control subjects) | relative residence time of the brain region of interest versus the pons ([2]; AD patients versus comparison subjects, PET)
2.64 ± 0.55 | 1.89 ± 0.25 | 8.14 ± 2.03 | 2.42 ± 0.27 | 1.40 ± 0.11 | 3.00 ± 0.16 | 2.04 ± 0.16 | 1.71 ± 0.23 | 2.60 ± 0.22 | 2.77 ± 0.63 | 2.88 ± 0.07 | 2.14 ± 0.06 | CNc1ccc(C=Cc2ccc(OCCOCCF)cc2)cc1 [12a, [4-(2-{4-[2-(2-Fluoro-ethoxy)-ethoxy]-phenyl}-vinyl)-phenyl]-methyl-amine] | – | – | –
3.22 ± 0.20 | 2.31 ± 0.12 | 6.59 ± 0.19 | 1.88 ± 0.08 | 1.00 ± 0.02 | 1.27 ± 0.03 | 1.81 ± 0.48 | 0.98 ± 0.27 | 1.20 ± 0.10 | 1.60 ± 0.12 | 1.50 ± 0.05 | 1.21 ± 0.06 | CNc1ccc(C=Cc2ccc(OCCOCCOCCOCCF)cc2)cc1 [12c, (4-{2-[4-(2-{2-[2-(2-Fluoro-ethoxy)-ethoxy]-ethoxy}-ethoxy)-phenyl]-vinyl}-phenyl)-methyl-amine] | – | – | –
– | – | – | – | – | – | – | – | – | – | 2.74 | – | CNc1ccc(C=Cc2ccc(OCCOCCOCC[18F])cc2)cc1 [[^18F]12b, [^18F]{4-[2-(4-{2-[2-(2-Fluoro-ethoxy)-ethoxy]-ethoxy}-phenyl)-vinyl]-phenyl}-methyl-amine] | – | – | –

The remaining lines, values behind:

SMILES | Biodistribution, Blood ([1]; 2 min after iv injection) [% dose/g] | Biodistribution, Bone ([1]; 2 min after iv injection) [% dose/g] | Biodistribution, Brain ([1]; 2 min after iv injection) [% dose/g] | Biodistribution, Blood ([1]; 30 min after iv injection) [% dose/g] | Biodistribution, Bone ([1]; 30 min after iv injection) [% dose/g] | Biodistribution, Brain ([1]; 30 min after iv injection) [% dose/g] | Biodistribution, Blood ([1]; 1 hr after iv injection) [% dose/g] | Biodistribution, Bone ([1]; 1 hr after iv injection) [% dose/g] | Biodistribution, Brain ([1]; 1 hr after iv injection) [% dose/g] | Biodistribution, Blood ([1]; 2 hr after iv injection) [% dose/g] | Biodistribution, Bone ([1]; 2 hr after iv injection) [% dose/g] | Biodistribution, Brain ([1]; 2 hr after iv injection) [% dose/g] | retention in the cortex ([2]; patients with diagnosed mild AD) | accumulation in the frontal cortex ([2]; mild to moderate AD patients, not in age-matched control subjects) | relative residence time of the brain region of interest versus the pons ([2]; AD patients versus comparison subjects, PET)
CNc1ccc(C=Cc2ccc(OCCOCCOCCOCCOCCF)cc2)cc1 [12d, [4-(2-{4-[2-(2-{2-[2-(2-Fluoro-ethoxy)-ethoxy]-ethoxy}-ethoxy)-ethoxy]-phenyl}-vinyl)-phenyl]-methyl-amine] | 4.99 ± 0.38 | 2.24 ± 0.21 | 7.30 ± 1.05 | 4.66 ± 0.06 | 2.29 ± 0.21 | 2.43 ± 0.03 | 2.89 ± 0.11 | 1.66 ± 0.01 | 1.77 ± 0.11 | 2.59 ± 0.18 | 2.35 ± 0.27 | 1.62 ± 0.03 | – | – | –
[11CH3]Nc1ccc(-c2nc3ccc(O)cc3s2)cc1 [[^11C]6-OH-BTA-1] | – | – | – | – | – | – | – | – | – | – | – | – | marked retention | – | –
[11CH3]Nc1ccc(/C=C/c2ccc(O)cc2)cc1 [[^11C]SB-13] | – | – | – | – | – | – | – | – | – | – | – | – | – | high accumulation | –
CC(=C(C#N)C#N)c1ccc2cc(N(C)CCF)ccc2c1 [[^18F]FDDNP] | – | – | – | – | – | – | – | – | – | – | – | – | – | – | significantly higher in AD patients
